Experimental findings from PMC8962522, “Direct interaction of TrkA/CD44v3 is essential for NGF-promoted aggressiveness of breast cancer cells” (Journal of Experimental & Clinical Cancer Research : CR, 2022) are described below.

The subject of experiment [1] is TrkA in MDA-MB-231 cells. The experiment is described as follows: Immunofluorescence, membrane TrkA. The format is cell-based. The conditions noted are these: MDA-MB-231, immunofluorescence/confocal, NGF; "same trend" = as CD44v3: increased until 15 min and then decreased. An excerpt:
The CD44v3- and CD44v6-containing isoforms expressing respectively exon 8 and 11(Fig. 1A) can interact with growth factor receptors. Using COS-7 cells with low CD44 and TrkA expression (Supplementary Fig. 1A-D), we differentially expressed TrkA and CD44s or a CD44 variant, either CD44v3 or CD44v6 (Fig. 1B, supplementary Fig. 2). […] Additionally, we evaluated the expression of TrkA and CD44v3 at the membrane level or in cells by immunofluorescence in MDA-MB-231 cells.
Supplementary file 13046_2022_2314_MOESM3_ESM.pdf: Additional file 3: Supplementary Figure 1. Validation of the ectopic expression of CD44 and/or TrkA in COS-7 cells. The expression of all CD44 isoforms (A), CD44 variant 3 (B), CD44 variant 6 (C) and TrkA ([…]; D) was evaluated by RT–qPCR (normalized using PUM-1). No expression of CD44, CD44 variants [3 or 6] or TrkA was detected in COS-7 cells (A-D) compared with that in cells transfected with the expression plasmid carrying each protein. […] Quantification of the PLA results was performed using ImageJ software (30 randomly chosen fields per condition of three different experiments). […] CD44v3 and CD44v6 levels at the plasma membrane were assessed by flow cytometry (A-D). The plasma membrane and total TrkA and CD44v3 levels were also quantified by confocal microscopy (E-H). […] The CD44v3/NGF interaction was evaluated using microscale thermophoresis (MST). […]

The subject of experiment [2] is TrkA/CD44v3 complex in BT-474 cells. Description: PLA TrkA/CD44v3 complex formation in BT-474 cells. The format is cell-based. The conditions noted are these: luminal B; NGF 100 ng/ml. The protocol:
Cells (10,000 cells per well) were grown on acid-washed eight-well glass slides (Thermo Scientific) in the appropriate medium supplemented with 10% FBS for 24 h. After NGF treatment, paraformaldehyde (PAF)-fixed cells were incubated with 4% bovine serum albumin (BSA) or 5% FBS (for 1 h at 20 °C), followed by overnight incubation with primary antibodies (rabbit anti-TrkA or rabbit anti-IgG + mouse anti-pan-CD44; mouse anti-CD44v3; mouse anti-CD44v6; mouse anti-IgG2a; mouse anti-IgG2b; or mouse anti-IgG1). PLA was performed following the manufacturer’s instructions in the assay kit (Duolink PLA; Sigma–Aldrich). To obtain the correct representation of the PLA signal for each condition, 30 fields per condition were observed using a fluorescence microscope (Eclipse TiU; Nikon, Japan). The PLA signals (red dots) were automatically quantified using ImageJ software (with an in-house-developed plug-in). […]
Fig. 7 The TrkA/CD44v3 complex is formed in PR-negative breast cancer cells and tumors. TrkA/CD44v3 complex formation was measured in SUM159-PT (triple negative—i.e., ERα-, PR-, and Her2-) cells (A), T47-D (luminal A—i.e., ERα+, PR+, and Her2-) cells (B), BT-474 (luminal B—ERα+, PR+, and Her2+) cells (C), HCC-1954 (Her2-like—ERα-, PR-, and Her2+) cells (D), and 150 tumor patient samples obtained from US BioMax (HBre-Duc150Sur01) (E, F) using the proximity ligation assay (PLA). […]

As to “NGF: recombinant human β-NGF (Alomone Labs, Israel)”, in experiment [1], the “level of TrkA at the membrane (in words)” value is given as “the membrane level of TrkA followed the same trend”. Besides, the “effect on TrkA/CD44v3 complex formation (PLA) in BT-474 cells” value in experiment [2] is given as “NGF induction was insufficient to modulate TrkA/CD44v3 complex formation in BT-474 (luminal B) cells”.
